Test results taken from ChEMBL document CHEMBL1147860, “ABC synthesis and antitumor activity of a series of Annonaceous acetogenin analogs with a threo, trans, threo, trans, threo-bis-tetrahydrofuran core unit” (Bioorg Med Chem Lett, 2007).

System: HCT-116
Experiment: Cytotoxicity against HCT116 cells
Type: functional, cell-based
Details: Homo sapiens

Compound | IC50
C[C@H]1C=C(C[C@H](O)CCCCCCCCCC[C@@H](O)[C@H]2CC[C@H]([C@H]3CC[C@H]([C@H](O)CCCCCCO)O3)O2)C(=O)O1 | 3.8 nM
C[C@H]1C=C(C[C@H](O)CCCCCCCCCC[C@@H](O)[C@H]2CC[C@H]([C@H]3CC[C@H]([C@H](O)CCCCCCCCCCCO)O3)O2)C(=O)O1 | 0.6 nM
CCCCCCCC[C@@H](O)[C@H]1CC[C@H]([C@H]2CC[C@H]([C@H](O)CCCCCCCCCC[C@@H](O)CC3=C[C@H](C)OC3=O)O2)O1 | 0.5 nM
C[C@H]1C=C(CCCCCCCCCCC[C@@H](O)[C@H]2CC[C@H]([C@H]3CC[C@H]([C@H](O)CCCCCCCCCCCO)O3)O2)C(=O)O1 | 35 nM
COCOCCCCCC[C@@H](O)[C@H]1CC[C@H]([C@H]2CC[C@H]([C@H](O)CCCCCCCCCC[C@@H](O)CC3=C[C@H](C)OC3=O)O2)O1 | 16 nM
CCCCCCCCCCC(O)C1CCC(C2CCC(C(O)CCCCCCCC[C@H](O)CC3=C[C@@H](C)OC3=O)O2)O1 (stereo partly specified) [ASIMICIN] | 8.8 nM
